Measured values: US5618724A, “Antibiotics GE 37468 A, B and C” (Gruppo Lepetit SpA, priority 1996, dated 1997)

How the values were obtained:
[1] = tested on: Staphylococcus aureus L165; settings: Iso-Sensitest broth, 10^4 CFU/ml, 20-24 h, 37° C.
[2] = tested on: Enterococcus faecalis ATCC 7080; settings: Iso-Sensitest broth, 10^4 CFU/ml, 20-24 h, 37° C.
[3] = tested on: Staphylococcus epidermidis ATCC 12228; settings: Iso-Sensitest broth, 10^4 CFU/ml, 20-24 h, 37° C.
[4] = tested on: Propionibacterium acnes ATCC 6919; test: MIC by broth microdilution; assay type: cell-based; settings: Wilkins-Chalgren broth, 10^5 CFU/ml, 48 h, N2:CO2:H2 (80:10:10)
[5] = tested on: Staphylococcus aureus Smith; settings: Iso-Sensitest broth, 10^4 CFU/ml, 20-24 h, 37° C.
[6] = tested on: Staphylococcus haemolyticus L602; settings: Iso-Sensitest broth, 10^4 CFU/ml, 20-24 h, 37° C.
[7] = tested on: Clostridium perfringens L290; settings: Wilkins-Chalgren broth, 10^5 CFU/ml, 48 h, N2:CO2:H2 (80:10:10)

Row | Structure (SMILES) | M.I.C. [1] | M.I.C. [2] | M.I.C. [3] | M.I.C. [4] | M.I.C. [5] | M.I.C. [6] | M.I.C. [7]
1 | Cc1oc2nc1C(=O)NC(CC(N)=O)c1nc(cs1)C(=O)NC(Cc1ccccc1)C1=NC(CS1)C(=O)NC(Cc1ccc(O)cc1)C(=O)N1C(O)CC(C)C1c1nc(cs1)-c1nc(cs1)-c1nc(-c3nc(C(N)=O)cs3)ccc1-2 (centres unmarked) [GE37468B] | 0.03 microgram/ml | 0.03 microgram/ml | 0.06 microgram/ml | 0.016 microgram/ml | 0.03 microgram/ml | 0.13 microgram/ml | 0.016 microgram/ml
2 | C=C(NC(=O)c1csc(-c2ccc3c(n2)-c2csc(n2)-c2csc(n2)C2C(C)CC(O)N2C(=O)C(Cc2ccc(O)cc2)NC(=O)C2CSC(=N2)C(Cc2ccccc2)NC(=O)c2csc(n2)C(CC(N)=O)NC(=O)c2nc-3oc2C)n1)C(N)=O (centres unmarked) [GE37468C] | 0.03 microgram/ml | 0.03 microgram/ml | 0.25 microgram/ml | 0.616 microgram/ml | 0.03 microgram/ml | 0.13 microgram/ml | 0.016 microgram/ml
